Laboratory results reported in patent US11337988B2, “Use of ouabain antagonists to inhibit viral infection” (priority 2018, dated 2022).

Tests used:
[1] = including 5 mg twice a day for a week and 0.5 mg per day for three months; cited from earlier work
[2] = adducin- and ouabain-induced forms of hypertension; normal systolic blood pressure of healthy individuals not lowered; cited from earlier work
ATP1A1 = biological target: T1, ATP1A1 (Homo sapiens, UniProt P05023); test: RSV-induced ATP1A1 clustering in A549 cells by confocal immunofluorescence; format: cell-based; conditions: A549 treated overnight, RSV MOI=5 PFU/cell, 5 hours
T1 construct: ATP1A1 being expressed ubiquitously and being the predominant isoform expressed in A549 cells; endogenous in cells; host or cells: A549 cells (ATCC CCL-185)
Source text: Whether PST2238 treatment had any effect on the clustering of ATP1A1 and RSV proteins was also investigated.
Immunofluorescence microscopy.

RSV = test: Preliminary studies of RSV infection with an inhibitor of clathrin-mediated endocytosis; format: cell-based, human respiratory syncytial virus (RSV); conditions: non-toxic concentrations
RSV-GFP = RSV-GFP infection of A549 cells, GFP intensity of total well by ELISA reader; conditions: discussion statement
Experimental: Quantification of RSV infection by viral expressed GFP. For the evaluation of RSV infection, RSV-GFP, a recombinantly derived virus that expresses enhanced green fluorescent protein (eGFP) from an additional gene inserted between the P and M genes, was used. SiRNA transfected or pre-treated A549 cells, seeded in a 12-well plate, were inoculated with an MOI of 1.0 PFU/cell. Inoculum was adsorbed for 2 h by incubating on a rocking platform at 37° C., after which the inoculum was washed off and replaced with fresh media. The infected cells were incubated for 17 h at 37° C. and 5% CO2 and the infectivity was evaluated by quantifying GFP either by ELISA reader or flow cytometry. For the ELISA reader quantification, the GFP intensity of the infected monolayer was quantified by an area scan (average GFP intensity of 29 individual measurements per well) on a Synergy 2 ELISA reader (BioTek). […] For the flow cytometry based GFP quantification, the cells were detached with 1 mM EDTA, stained with LIVE/DEAD fixable dead cell staining kit (Life Technologies), and fixed with 4% paraformaldehyde (PFA, Electron Microscopy Science, PA). The GFP intensities of single, live cells were analyzed on a Canto II flow cytometer (BD Biosciences, Franklin Lakes, N.J.).

EGFR Tyr845 = test: EGFR phosphorylation array (pTyr845) in A549 cells; conditions: without RSV infection
Experimental: A549 cells were treated as indicated (either siRNA knock down for 48 h or pre-treatment with the chemical compounds ouabain [25 n1\4], PST2238 [40 μM] or Src Inhibitor-I (SrcI-I) [6.25 μM] and PP2 [12.5 μM] for 5 h pre-inoculation). Cells were serum starved overnight, before they were inoculated with wt RSV (MOI=5 PFU/cell) and incubated at 37° C. Cells were lysed 5 h p.i. and subjected to a phospho-specific EGFR array (RayBiotech, Inc.). (FIG. 8A) Representative array spots of pTyr845 EGFR and its corresponding pan EGFR for each treatment are shown. […] (FIG. 8D) As control, PST2238 or Ouabain pretreated A549 cells were stimulated with EGF (100 ng/ml) for 45 min and the pTyr845 EGFR signal was quantified. The statistical significance of the differences were determined by one-way analysis of variance with Dunnett multiple-comparison test and the significance p-values are indicated for each comparison. […]
Quantification of EGFR phosphorylation. […] The protein concentration of the lysate was quantified by bicinchoninic acid (BCA) assay (Thermo Fisher Scientific) and lysate containing 150 μg total protein was used for each array. […] The light emission of the array spots was detected by exposure to X-ray films. The films were scanned and the intensity values of each spot were quantified by ImageQuant TL (Array Version 8.1, GE Healthcare). […]

In the case of `C[C@]12CC[C@H](O)C[C@H]1CC[C@@H]1[C@@H]2CC[C@]2(C)[C@@](O)(c3ccoc3)CC[C@]12O` [PST2238, (3β,5β,14β)-21,23-Epoxy-24-norchola-20,22-diene-3,14,17-triol], the “toxicity in human and animal models” value [1] is listed as “non-toxic”, the “effect on blood pressure” value [2] is listed as “lowers the blood pressure” and the “effect on the clustering of ATP1A1” value (ATP1A1) is listed as “no apparent effect”.

With `CN(C)CCCN1c2ccccc2Sc2ccc(Cl)cc21` [chlorpromazine] the “effects on RSV infection” value (RSV) was “did not detect effects”.

With `C[C@@H]1O[C@@H](O[C@H]2C[C@@H](O)[C@]3(CO)[C@@H]4[C@@H](CC[C@]3(O)C2)[C@@]2(O)CCC(C3=CC(=O)OC3)[C@@]2(C)C[C@@H]4O)[C@H](O)[C@H](O)[C@H]1O` (stereo partly drawn) [ouabain, (1β,3β,5β,11α)-3-[(6-Deoxy-α-L-mannopyranosyl)oxy]-1,5,11,14,19-pentahydroxycard-20(22)-enolide] the “concentrations at which inhibition of RSV infection was achieved” value (RSV-GFP) was “sub-nanomolar” and the “detection of phosphorylation of EGFR Tyr845 following treatment with compound alone” value (EGFR Tyr845) was “not following treatment with ouabain”.
